Laboratory results: patent publication US20260130881A1, “SUSTAINED RELEASE DEVICE CONTENTS FOR TREATMENT OF PARKINSON'S DISEASE AND OTHER DISORDERS” (priority 2024, published 2026)

Settings: human, in vivo

N[C@@H](Cc1ccc(O)c(O)c1)C(=O)O [levodopa]
AUC_0-6 h: 1423.0 ± 919.5 ng·h/mL
